Assays:
HSV-2 strain G = assay: HSV-2 infection mouse model (vaginal protection); format: in vivo; settings: 10 ID50
Experimental: (§1) Female 6-8 week-old CF-1 mice were purchased from Harlan (Indianapolis, Ind.). Mice were housed in a reverse light cycle facility (12 h light/12 h dark), to enable selection of mice in a naturally cycling estrus state. The mouse vagina during the estrus phase of the estrous cycle is most similar to the human vagina. Barrier properties to nanoparticles in estrus phase mouse mucus closely mimic the barrier properties to nanoparticles in human CVM. Thus, mice in estrus phase, as determined visually by the appearance of the vaginal introitus, were used for all distribution and retention studies. Mice used for vaginal HSV-2 protection and susceptibility studies were given a subcutaneous flank injection of 2.5 mg Depo-Provera (Pharmacia & Upjohn Company, New York, N.Y.) in 100 μL phosphate-buffered saline (PBS) 7 days prior to experiments. This treatment is commonly used to increase susceptibility to vaginal HSV-2 infection. All experimental protocols were approved by the Johns Hopkins Animal Care and Use Committee.
Mice received 20 μl of 10 mg/ml acyclovir monophosphate dissolved in either PBS (isoosmolar) or ultrapure water (hypoosmolar) immediately before use. […] Mice were dosed either 1 min or 60 min prior to viral inoculum. Mice were then challenged with 10 μl of inoculum containing HSV-2 strain G (ATCC #VR-724, 2.8×10^7 TCID50 per ml). For protection studies, HSV-2 was diluted 10-fold with Bartel's medium to deliver 10 ID50, a dose that typically infects 85-90% of control mice. For osmotic-induced susceptibility tests, virus was diluted 10-fold with Bartel's medium and further diluted 10-fold in either Bartel's medium (isoosmolar) or deionized water (hypoosmolar) to the ID50, a dose that infects half of the mice. Mice were assessed for infection three days later after inoculation by culturing a PBS vaginal lavage on human foreskin fibroblasts (Diagnostic Hybrids, MRHF Lot #440318W). In this model, input (challenge) virus is no longer detectable in lavage fluid if it is collected more than 12 h after the challenge.
The Wilcoxon rank-sum test was used to compare data sets. This test is non-parametric, and more appropriate in situations where a Gaussian distribution cannot be assumed. For HSV-2 infection studies, statistical significance was determined using Fisher's exact test, two-tailed distribution.

[1] = Vaginal epithelial distribution of FITC-containing biodegradable MPP versus FITC in HEC gel after 24 h; format: in vivo, mouse; settings: MPP in UP water, FITC in isoosmolar HEC gel
Experimental: Biodegradable MPP containing FITC intravaginally was administered in UP water. As a comparison, FITC in the standard isoosmolar placebo gel, hydroxyethylcellulose (HEC), was administered. After 24 h, the vaginal tissue was excised and flattened between two glass slides.

[2] = Drug retention in the vagina (Doxorubicin fluorescence of whole cervicovaginal tract); format: in vivo, mouse; settings: after 10 min supine; normalized to isoosmolar group
Experimental: Female 6-8 week-old CF-1 mice were purchased from Harlan (Indianapolis, Ind.). Mice were housed in a reverse light cycle facility (12 h light/12 h dark), to enable selection of mice in a naturally cycling estrus state. The mouse vagina during the estrus phase of the estrous cycle is most similar to the human vagina. Barrier properties to nanoparticles in estrus phase mouse mucus closely mimic the barrier properties to nanoparticles in human CVM. Thus, mice in estrus phase, as determined visually by the appearance of the vaginal introitus, were used for all distribution and retention studies. […]
Doxorubicin vas dissolved at a concentration 1 mg/ml in phosphate buffeted saline (“PBS”) (isoosmolar with respect to blood) or ultrapure water (hypoosmolar). […] Fluorescence images of the tissues were obtained using the Xenogen IVIS Spectrum imaging device (Caliper Life Sciences). To account for potential differences in Doxorubicin solution fluorescence, vials of both isoosmolar and hypoosmolar Doxorubicin solutions were included in the image. The ratio of the intensity of the two solutions was used to normalize the tissue fluorescence for each group. Quantification of fluorescent counts per unit area was calculated using the Xenogen Living Image 2.5 software. […]

[3] = Drug distribution in the vagina (Doxorubicin surface coverage on flattened tissue); format: in vivo, mouse; settings: for vaginal tissue area covered: non-ambulatory (supine for 1 h)
Experimental: as §1
Doxorubicin (NetQem, Durham, N.C.) was dissolved at 1 mg/ml concentration in either PBS (isoosmolar with respect to blood) or ultrapure water (hypoosmolar). For 1 liter of 1×PBS, 800 ml of distilled water; 8 g of NaCl; 0.2 g of KCl; 1.44 g of Na2HPO4; 0.24 g of KH2PO4: adjust the pH to 7.4 with HCl, add distilled water to a total volume of 1 liter.
Doxorubicin was vaginally administered both isoosmotically and hypoosmotically to mice in two different conditions. The “non-ambulatory” group was anesthetized with an intraperitoneal injection of Avertin working solution (prepared according to Johns Hopkins ACUC guidelines) and remained supine for 1 hr prior to tissue collection. […] The images were ‘thresholded’ to draw region of interest boundaries around the fluorescent signal, and then the area covered quantified using ImageJ software. An average percentage coverage was determined for each mouse, and these values were averaged over groups of n=5 mice.

Compound: acyclovir monophosphate [ACVp]
- mice infected (HSV-2 strain G; 1% ACVp 1 min before virus, administered hypotonically): 31%
- mice infected (HSV-2 strain G; 1% ACVp 1 min before virus, administered isotonically): 49%
- mice infected (HSV-2 strain G; 1% ACVp 1 h before virus, administered hypotonically): 73%
- mice infected (HSV-2 strain G; 1% ACVp 1 h before virus, administered isotonically): 45%

Compound: FITC
- epithelial distribution on flattened vaginal tissue [1]: sparsely distributed

Compound: COc1cccc2c1C(=O)c1c(O)c3c(c(O)c1C2=O)C[C@@](O)(C(=O)CO)C[C@@H]3O[C@H]1C[C@H](N)[C@H](O)[C@H](C)O1 [Doxorubicin]
- relative fluorescent signal in reproductive tract, hypoosmolar versus isoosmolar solution [2]: half
- vaginal surface area covered ([3]; ambulatory for 10 mins, isoosmolar (isotonic) solution): 25%
- vaginal tissue area covered ([3]; hypoosmolar solution (ultrapure water)): 88%
- vaginal tissue area covered ([3]; isoosmolar solution (PBS)): 15%

Source: patent publication US9629813B2, “Nanoparticle formulations with enhanced mucosal penetration” (The Johns Hopkins University, priority 2012, dated 2017)
